Consider 23 compounds from ChEMBL document CHEMBL5729134, “Apoptosis signal-regulating kinase 1 inhibitors and methods of use thereof” (2022).

This test concerns the target T1, Mitogen-activated protein kinase kinase kinase 5 (Homo sapiens, UniProt Q99683).
T1 sequence (Q99683 whole entry): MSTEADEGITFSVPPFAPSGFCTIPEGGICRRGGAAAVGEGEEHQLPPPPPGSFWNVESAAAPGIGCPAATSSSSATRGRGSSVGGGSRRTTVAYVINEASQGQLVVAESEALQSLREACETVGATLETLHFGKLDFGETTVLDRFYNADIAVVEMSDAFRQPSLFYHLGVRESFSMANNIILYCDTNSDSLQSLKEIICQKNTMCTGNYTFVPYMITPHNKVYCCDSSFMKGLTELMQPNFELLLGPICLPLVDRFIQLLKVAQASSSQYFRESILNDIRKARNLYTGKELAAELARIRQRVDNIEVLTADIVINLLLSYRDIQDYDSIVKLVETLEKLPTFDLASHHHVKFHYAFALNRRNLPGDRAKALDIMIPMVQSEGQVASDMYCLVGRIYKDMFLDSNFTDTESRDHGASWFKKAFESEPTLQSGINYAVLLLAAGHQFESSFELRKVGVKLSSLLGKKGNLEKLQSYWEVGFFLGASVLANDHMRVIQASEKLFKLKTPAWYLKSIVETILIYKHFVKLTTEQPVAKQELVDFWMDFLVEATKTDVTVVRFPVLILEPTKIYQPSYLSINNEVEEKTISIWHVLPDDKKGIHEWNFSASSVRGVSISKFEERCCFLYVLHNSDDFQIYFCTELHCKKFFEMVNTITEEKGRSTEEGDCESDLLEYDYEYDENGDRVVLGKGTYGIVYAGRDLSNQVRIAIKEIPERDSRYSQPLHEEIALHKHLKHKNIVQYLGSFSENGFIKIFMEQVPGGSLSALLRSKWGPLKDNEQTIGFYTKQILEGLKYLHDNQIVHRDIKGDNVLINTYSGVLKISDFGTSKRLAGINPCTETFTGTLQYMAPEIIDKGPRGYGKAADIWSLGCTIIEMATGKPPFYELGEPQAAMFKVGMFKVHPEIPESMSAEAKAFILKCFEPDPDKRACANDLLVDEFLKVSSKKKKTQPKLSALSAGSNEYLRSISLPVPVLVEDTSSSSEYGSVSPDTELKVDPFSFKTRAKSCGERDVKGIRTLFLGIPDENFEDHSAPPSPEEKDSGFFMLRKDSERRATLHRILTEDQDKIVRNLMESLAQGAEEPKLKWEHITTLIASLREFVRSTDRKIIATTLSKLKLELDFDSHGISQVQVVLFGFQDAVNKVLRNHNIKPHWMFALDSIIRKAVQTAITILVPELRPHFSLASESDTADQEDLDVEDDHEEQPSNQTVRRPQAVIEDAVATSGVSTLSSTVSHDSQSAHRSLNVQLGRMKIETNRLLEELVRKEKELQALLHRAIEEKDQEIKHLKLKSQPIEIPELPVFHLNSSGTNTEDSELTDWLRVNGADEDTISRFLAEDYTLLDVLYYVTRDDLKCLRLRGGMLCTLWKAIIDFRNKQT
Nature of the test: HTRF KinEASE Assay : ASK1 was purchased from Thermofisher (Catalogue #PV4011), ATP was purchased from Sigma (Catalogue #A7699), HTRF® KinEASE Assay System was obtained from Cisbio (Bedford, Mass.). ½ Area plate was purchased from Perkin Elmer (Catalogue ##6005560). HTRF® KinEASE-STK is a generic method for measuring serine/threonine kinase activities using a time-resolved fluorescence resonance energy transfer (TR-FRET) immunoassay. The IC50 value for each compound was determined in the presence of compound (various concentration from 0 to 10 μM) and a fixed amount of ATP and peptide substrates. The test compound, 1 μM STK3 peptide substrate, and […] are incubated with kinase reaction buffer containing 50 mM HEPES Ph 7.5, 0.01% BRIJ-35, 10 mM MgCl2, and 1 mM EGTA for 30 minutes. 100 μM ATP is added to start kinase reaction and incubated for 3 hours. The STK3-antibody labeled with Eu3+-Cryptate and 125 nM streptavidin-XL665 are mixed in a single addition with stop reagents provided by the Cisbio kit used to stop the kinase reaction. Fluorescence is detected using an Envision Multilabeled 2014 reader from PerkinElmer. The Fluorescence is measured at 615 nm (Cryptate) and 665 nm (XL665) and a ratio of 665 nm/615 nm is calculated for each well. The resulting TR-FRET is proportional to the phosphorylation level. Staurosporine was used as the positive control. IC50 was determined by Xlfit 5.3.
In the case of `COc1cc2c(cc1C(=O)Nc1cccc(-c3nnnn3[C@H](C)CO)n1)CN(C(=O)c1cnn(C)c1)CC2`, the IC50 (usually the concentration that inhibits the measured activity by half) was less than 1.25 nM.
As for `COc1cc2c(cc1C(=O)Nc1cccc(-c3nnnn3[C@H](C)CO)n1)CN(C(=O)OCc1ccccc1)CC2`, the IC50 is less than 1.25 nM.
As for `COc1cc2c(cc1C(=O)Nc1cccc(-c3nnnn3[C@H](C)CO)n1)CN(C(=O)OCC(F)(F)F)CC2`, the figure is 1.25 to 10 nM.
As for `CCNC(=O)N1CCc2cc(OC)c(C(=O)Nc3cccc(-c4nnnn4[C@H](C)CO)n3)cc2C1`, the figure is 1.25 to 10 nM; as for `COc1cc2c(cc1C(=O)Nc1cccc(-c3nnnn3[C@H](C)CO)n1)CN(C(=O)c1ccc(F)cc1)CC2`, less than 1.25 nM; as for `COc1cc2c(cc1C(=O)Nc1cccc(-c3nnnn3[C@H](C)CO)n1)CN(C(=O)C(C)(C)C)CC2`, less than 1.25 nM.
In the case of `COc1cc2c(cc1C(=O)Nc1cccc(-c3nnnn3[C@H](C)CO)n1)CN(C(=O)OC(C)C)CC2` it was less than 1.25 nM; in that of `COc1cc2c(cc1C(=O)Nc1cccc(-c3nnnn3[C@H](C)CO)n1)CN(C(=O)C(C)(C)CO)CC2`, 1.25 to 10 nM.
Take `COc1cc2c(cc1C(=O)Nc1cccc(-c3nnnn3[C@H](C)CO)n1)CN(C)CC2`: the concentration for half-maximal inhibition (IC50) is 1.25 to 10 nM.
As for `COc1cc2c(cc1C(=O)Nc1cccc(-c3nnnn3[C@H](C)CO)n1)CN(C(=O)N1CCCC1)CC2`, the figure is less than 1.25 nM.
In the case of `COc1cc2c(cc1C(=O)Nc1cccc(-c3nncn3[C@H](C)CO)n1)CN(C(=O)N1CCCC1)CC2` it was less than 1.25 nM; in that of `COc1cc2c(cc1C(=O)Nc1cccc(-c3nnnn3[C@H](C)CO)n1)CN(S(=O)(=O)CCC(F)(F)F)CC2`, 1.25 to 10 nM.
In the case of `COc1cc2c(cc1C(=O)Nc1cccc(-c3nncn3[C@H](C)CO)n1)CN(C(C)C)CC2` it was less than 1.25 nM; in that of `COc1cc2c(cc1C(=O)Nc1cccc(-c3nnnn3[C@H](C)CO)n1)CN(C(C)C)CC2`, less than 1.25 nM.
In the case of `COc1cc2c(cc1C(=O)Nc1cccc(-c3nnnn3[C@H](C)CO)n1)CN(C(=O)C[C@H](C)O)CC2`, the IC50 is less than 1.25 nM.
In the case of `COc1cc2c(cc1C(=O)Nc1cccc(-c3nnnn3[C@@H]3CCC[C@@H]3O)n1)CN(C(=O)OCC(F)(F)F)CC2` it was 1.25 to 10 nM; in that of `COc1cc2c(cc1C(=O)Nc1cccc(-c3nnnn3[C@H](C)CO)n1)CN(C(=O)c1cn(C3CC3)cn1)CC2`, 1.25 to 10 nM.
`C[C@H](CO)n1cnnc1-c1cccc(NC(=O)c2cc3c(cc2F)CCN(C(=O)NC2CCCC2)C3)n1`: the IC50 is less than 1.25 nM.
As for `CCOC(=O)N1CCc2cc(OC)c(C(=O)Nc3cccc(-c4nnnn4[C@H](C)CO)n3)cc2C1`, the figure is 1.25 to 10 nM.
`COc1cc2c(cc1C(=O)Nc1cccc(-c3nncn3[C@H](C)CO)n1)CN(C(=O)C(C)(C)C)CC2`: the IC50 was less than 1.25 nM.
In the case of `COc1cc2c(cc1C(=O)Nc1cccc(-c3nnnn3[C@H](C)CO)n1)CN(S(=O)(=O)C1CC1)CC2` it was less than 1.25 nM; in that of `COc1cc2c(cc1C(=O)Nc1cccc(-c3nncn3[C@H](C)CO)n1)CN(S(=O)(=O)CCC(F)(F)F)CC2`, less than 1.25 nM; in that of `CCNC(=O)N1CCc2cc(F)c(C(=O)Nc3cccc(-c4nncn4[C@H](C)CO)n3)cc2C1`, less than 1.25 nM.
